Experimental data reported in patent US20240059671A1, “TYROSINE KINASE 2 (TYK2) DEGRADATION COMPOUNDS AND METHODS OF USE” (CULLGEN (SHANGHAI), INC., priority 2020, published 2024).

Molecular target: TYK2 (Homo sapiens, UniProt P29597)
Test: TYK2 protein degradation in NOMO-1 cells by immunoblotting
Type: cell-based
Set-up: endogenous in cells
Settings: NOMO-1 cells
Outline: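 NOMO-1 cells in RPMI 1640 with 10% FBS were exposed to compound at 0.1–1000 nM for 16 hours. TYK2 levels in RIPA lysates were measured by SDS-PAGE immunoblot with chemiluminescent detection and band densitometry.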

Sequence of TYK2 (P29597 whole entry): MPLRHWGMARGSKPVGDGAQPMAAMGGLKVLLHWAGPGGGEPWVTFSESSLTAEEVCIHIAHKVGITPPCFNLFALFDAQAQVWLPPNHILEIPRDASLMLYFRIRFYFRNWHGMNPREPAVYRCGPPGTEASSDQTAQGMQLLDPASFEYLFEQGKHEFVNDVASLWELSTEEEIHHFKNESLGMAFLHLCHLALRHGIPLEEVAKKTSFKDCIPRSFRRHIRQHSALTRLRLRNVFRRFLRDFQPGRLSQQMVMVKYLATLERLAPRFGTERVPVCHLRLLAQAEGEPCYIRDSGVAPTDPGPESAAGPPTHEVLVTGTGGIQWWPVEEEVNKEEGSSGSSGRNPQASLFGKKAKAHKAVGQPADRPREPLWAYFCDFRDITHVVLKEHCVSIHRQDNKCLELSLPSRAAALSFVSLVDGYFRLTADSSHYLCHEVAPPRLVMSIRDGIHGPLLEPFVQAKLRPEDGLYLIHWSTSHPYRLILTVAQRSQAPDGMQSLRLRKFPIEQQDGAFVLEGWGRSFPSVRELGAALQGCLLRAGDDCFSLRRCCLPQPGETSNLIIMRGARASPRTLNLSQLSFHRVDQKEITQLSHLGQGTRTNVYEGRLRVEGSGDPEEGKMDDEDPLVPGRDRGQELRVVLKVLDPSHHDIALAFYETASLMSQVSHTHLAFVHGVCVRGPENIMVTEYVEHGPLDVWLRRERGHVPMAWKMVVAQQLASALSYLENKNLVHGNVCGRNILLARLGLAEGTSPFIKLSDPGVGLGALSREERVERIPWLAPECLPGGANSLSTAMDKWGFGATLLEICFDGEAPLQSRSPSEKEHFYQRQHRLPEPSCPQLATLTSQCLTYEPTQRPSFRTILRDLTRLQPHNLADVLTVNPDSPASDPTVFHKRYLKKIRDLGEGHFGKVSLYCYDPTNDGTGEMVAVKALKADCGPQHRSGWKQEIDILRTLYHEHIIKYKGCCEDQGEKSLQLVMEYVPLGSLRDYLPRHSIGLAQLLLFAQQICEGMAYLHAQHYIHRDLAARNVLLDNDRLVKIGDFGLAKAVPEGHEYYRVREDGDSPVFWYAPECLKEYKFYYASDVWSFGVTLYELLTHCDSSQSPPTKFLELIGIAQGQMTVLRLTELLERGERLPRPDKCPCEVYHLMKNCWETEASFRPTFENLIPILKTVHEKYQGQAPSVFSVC

| Compound | TYK2 Degradation (NOMO-1, 10 nM) | TYK2 Degradation (NOMO-1, 100 nM) |
| --- | --- | --- |
| CNC(=O)c1nnc(Nc2ccc(C#CC3CCN(C(=O)CCCCCC(=O)N[C@H](C(=O)N4C[C@H](O)C[C@H]4C(=O)N[C@@H](C)c4ccc(-c5scnc5C)cc4)C(C)(C)C)CC3)cn2)cc1Nc1cccc(-c2ncn(C)n2)c1OC [CPD-118, 6-((5-((1-(7-(((S)-1-((2S,4R)-4-Hydroxy-2-(((S)-1-(4-(4-methylthiazol-5-yl)phenyl)ethyl)carbamoyl)pyrrolidin-1-yl)-3,3-dimethyl-1-oxobutan-2-yl)amino)-7-oxoheptanoyl)piperidin-4-yl)ethynyl)pyridin-2-yl)amino)-4-((2-methoxy-3-(1-methyl-1H-1,2,4-triazol-3-yl)phenyl)amino)-N-methylpyridazine-3-carboxamide] | B (B: <60% TYK2 degradation, and >20% TYK2 degradation) | A (A: ≥60% TYK2 degradation) |
| CNC(=O)c1nnc(Nc2ccc(N3CCN(C4CCN(C(=O)CCCCCCC(=O)N[C@H](C(=O)N5C[C@H](O)C[C@H]5C(=O)N[C@@H](C)c5ccc(-c6scnc6C)cc5)C(C)(C)C)CC4)CC3)cn2)cc1Nc1cccc(-c2ncn(C)n2)c1OC [CPD-149, 6-((5-(4-(1-(8-(((S)-1-((2S,4R)-4-Hydroxy-2-(((S)-1-(4-(4-methylthiazol-5-yl)phenyl)ethyl)carbamoyl)pyrrolidin-1-yl)-3,3-dimethyl-1-oxobutan-2-yl)amino)-8-oxooctanoyl)piperidin-4-yl)piperazin-1-yl)pyridin-2-yl)amino)-4-((2-methoxy-3-(1-methyl-1H-1,2,4-triazol-3-yl)phenyl)amino)-N-methylpyridazine-3-carboxamide] | – | A (A: ≥60% TYK2 degradation) |
| CNC(=O)c1nnc(Nc2ccc(N3CCN(C(=O)CCCCCCC(=O)N[C@H](C(=O)N4C[C@H](O)C[C@H]4C(=O)N[C@@H](C)c4ccccc4)C(C)(C)C)CC3)cn2)cc1Nc1cccc(-c2ncn(C)n2)c1OC [CDD-169, 6-((5-(4-(8-(((S)-1-((2S,4R)-4-hydroxy-2-(((S)-1-phenylethyl)carbamoyl)pyrrolidin-1-yl)-3,3-dimethyl-1-oxobutan-2-yl)amino)-8-oxooctanoyl)piperazin-1-yl)pyridin-2-yl)amino)-4-((2-methoxy-3-(1-methyl-1H-1,2,4-triazol-3-yl)phenyl)amino)-N-methylpyridazine-3-carboxamide] | C (C: ≤20% TYK2 degradation) | C (C: ≤20% TYK2 degradation) |
| CNC(=O)c1nnc(Nc2ccc(C(=O)NC3CC(CC(=O)N[C@H](C(=O)N4C[C@H](O)C[C@H]4C(=O)N[C@@H](C)c4ccc(-c5scnc5C)cc4)C(C)(C)C)C3)cn2)cc1Nc1cccc(-c2ncn(C)n2)c1OC (stereo partly drawn) [CPD-161, 6-((5-((3-(2-(((S)-1-((2S,4R)-4-hydroxy-2-(((S)-1-(4-(4-methylthiazol-5-yl)phenyl)ethyl)carbamoyl)pyrrolidin-1-yl)-3,3-dimethyl-1-oxobutan-2-yl)amino)-2-oxoethyl)cyclobutyl)carbamoyl)pyridin-2-yl)amino)-4-((2-methoxy-3-(1-methyl-1H-1,2,4-triazol-3-yl)phenyl)amino)-N-methylpyridazine-3-carboxamide] | C (C: ≤20% TYK2 degradation) | A (A: ≥60% TYK2 degradation) |
| CNC(=O)c1nnc(Nc2ccc(C(=O)NCC(=O)N[C@H](C(=O)N3C[C@H](O)C[C@H]3C(=O)N[C@@H](C)c3ccc(-c4scnc4C)cc3)C(C)(C)C)cn2)cc1Nc1cccc(-c2ncn(C)n2)c1OC [CPD-137, 6-((5-((2-(((S)-1-((2S,4R)-4-Hydroxy-2-(((S)-1-(4-(4-methylthiazol-5-yl)phenyl)ethyl)carbamoyl)pyrrolidin-1-yl)-3,3-dimethyl-1-oxobutan-2-yl)amino)-2-oxoethyl)carbamoyl)pyridin-2-yl)amino)-4-((2-methoxy-3-(1-methyl-1H-1,2,4-triazol-3-yl)phenyl)amino)-N-methylpyridazine-3-carboxamide] | C (C: ≤20% TYK2 degradation) | A (A: ≥60% TYK2 degradation) |
| CNC(=O)c1nnc(Nc2ccc(C#CC3CCN(C(=O)CCCCCCCC(=O)N[C@H](C(=O)N4C[C@H](O)C[C@H]4C(=O)N[C@@H](C)c4ccc(-c5scnc5C)cc4)C(C)(C)C)CC3)cn2)cc1Nc1cccc(-c2ncn(C)n2)c1OC [CPD-120, 6-((5-((1-(9-(((S)-1-((2S,4R)-4-Hydroxy-2-(((S)-1-(4-(4-methylthiazol-5-yl)phenyl)ethyl)carbamoyl)pyrrolidin-1-yl)-3,3-dimethyl-1-oxobutan-2-yl)amino)-9-oxononanoyl)piperidin-4-yl)ethynyl)pyridin-2-yl)amino)-4-((2-methoxy-3-(1-methyl-1H-1,2,4-triazol-3-yl)phenyl)amino)-N-methylpyridazine-3-carboxamide] | – | A (A: ≥60% TYK2 degradation) |
| CNC(=O)c1nnc(Nc2ccc(C(=O)NCCCNc3cccc4c3C(=O)N(C3CCC(=O)NC3=O)C4=O)cn2)cc1Nc1cccc(-c2ncn(C)n2)c1OC (centres unmarked) [CPD-153, 6-((5-((3-((2-(2,6-Dioxopiperidin-3-yl)-1,3-dioxoisoindolin-4-yl)amino)propyl)carbamoyl)pyridin-2-yl)amino)-4-((2-methoxy-3-(1-methyl-1H-1,2,4-triazol-3-yl)phenyl)amino)-N-methylpyridazine-3-carboxamide] | – | C (C: ≤20% TYK2 degradation) |
| CNC(=O)c1nnc(Nc2ccc(CNCCCCCCCC(=O)N[C@H](C(=O)N3C[C@H](O)C[C@H]3C(=O)N[C@@H](C)c3ccc(-c4scnc4C)cc3)C(C)(C)C)cn2)cc1Nc1cccc(-c2ncn(C)n2)c1OC [CPD-162, 6-((5-(((8-(((S)-1-((2S,4R)-4-hydroxy-2-(((S)-1-(4-(4-methylthiazol-5-yl)phenyl)ethyl)carbamoyl)pyrrolidin-1-yl)-3,3-dimethyl-1-oxobutan-2-yl)amino)-8-oxooctyl)amino)methyl)pyridin-2-yl)amino)-4-((2-methoxy-3-(1-methyl-1H-1,2,4-triazol-3-yl)phenyl)amino)-N-methylpyridazine-3-carboxamide] | B (B: <60% TYK2 degradation, and >20% TYK2 degradation) | A (A: ≥60% TYK2 degradation) |
| CNC(=O)c1nnc(Nc2ccc(N3CCN(C(=O)CCCCCCCCC(=O)N[C@H](C(=O)N4C[C@H](O)C[C@H]4C(=O)N[C@@H](C)c4ccc(-c5scnc5C)cc4)C(C)(C)C)CC3)cn2)cc1Nc1cccc(-c2ncn(C)n2)c1OC [CPD-114, 6-((5-(4-(10-(((S)-1-((2S,4R)-4-hydroxy-2-(((S)-1-(4-(4-methylthiazol-5-yl)phenyl)ethyl)carbamoyl)pyrrolidin-1-yl)-3,3-dimethyl-1-oxobutan-2-yl)amino)-10-oxodecanoyl)piperazin-1-yl)pyridin-2-yl)amino)-4-((2-methoxy-3-(1-methyl-1H-1,2,4-triazol-3-yl)phenyl)amino)-N-methylpyridazine-3-carboxamide] | A (A: ≥60% TYK2 degradation) | A (A: ≥60% TYK2 degradation) |
| CNC(=O)c1nnc(Nc2ccc(C(=O)NCCCCCCC(=O)N[C@H](C(=O)N3C[C@H](O)C[C@H]3C(=O)N[C@@H](C)c3ccc(-c4scnc4C)cc3)C(C)(C)C)cn2)cc1Nc1cccc(-c2ncn(C)n2)c1OC [CPD-142, 6-((5-((7-(((S)-1-((2S,4R)-4-Hydroxy-2-(((S)-1-(4-(4-methylthiazol-5-yl)phenyl)ethyl)carbamoyl)pyrrolidin-1-yl)-3,3-dimethyl-1-oxobutan-2-yl)amino)-7-oxoheptyl)carbamoyl)pyridin-2-yl)amino)-4-((2-methoxy-3-(1-methyl-1H-1,2,4-triazol-3-yl)phenyl)amino)-N-methylpridazine-3-carboxamide] | B (B: <60% TYK2 degradation, and >20% TYK2 degradation) | A (A: ≥60% TYK2 degradation) |
| CNC(=O)c1cnc(Nc2ccc(N3CCN(C(=O)CCCCCCC(=O)N[C@H](C(=O)N4C[C@H](O)C[C@H]4C(=O)N[C@@H](C)c4ccc(-c5scnc5C)cc4)C(C)(C)C)CC3)cn2)cc1Nc1ccccc1OC [CDD-170, 6-((5-(4-(8-(((S)-1-((2S,4R)-4-hydroxy-2-(((S)-1-(4-(4-methylthiazol-5-yl)phenyl)ethyl)carbamoyl)pyrrolidin-1-yl)-3,3-dimethyl-1-oxobutan-2-yl)amino)-8-oxooctanoyl)piperazin-1-yl)pyridin-2-yl)amino)-4-((2-methoxyphenyl)amino)-N-methylnicotinamide] | B (B: <60% TYK2 degradation, and >20% TYK2 degradation) | A (A: ≥60% TYK2 degradation) |
| CNC(=O)c1nnc(Nc2ccc(N3CCN(C(=O)CCCCCCC(=O)N[C@H](C(=O)N4C[C@H](O)C[C@H]4C(=O)N[C@H]4CCCc5[nH]c(=O)c(C)cc54)C(C)(C)C)CC3)cn2)cc1Nc1cccc(-c2ncn(C)n2)c1OC [CDD-174, 6-((5-(4-(8-(((S)-1-((2S,4R)-4-hydroxy-2-(((S)-3-methyl-2-oxo-1,2,5,6,7,8-hexahydroquinolin-5-yl)carbamoyl)pyrrolidin-1-yl)-3,3-dimethyl-1-oxobutan-2-yl)amino)-8-oxooctanoyl)piperazin-1-yl)pyridin-2-yl)amino)-4-((2-methoxy-3-(1-methyl-1H-1,2,4-triazol-3-yl)phenyl)amino)-N-methylpyridazine-3-carboxamide] | C (C: ≤20% TYK2 degradation) | C (C: ≤20% TYK2 degradation) |
| CNC(=O)c1nnc(Nc2ccc(C(=O)NCCCCCCCC(=O)N[C@H](C(=O)N3C[C@H](O)C[C@H]3C(=O)N[C@@H](C)c3ccc(-c4scnc4C)cc3)C(C)(C)C)cn2)cc1Nc1cccc(-c2ncn(C)n2)c1OC [CPD-143, 6-((5-((8-(((S)-1-((2S,4R)-4-hydroxy-2-(((S)-1-(4-(4-methylthiazol-5-yl)phenyl)ethyl)carbamoyl)pyrrolidin-1-yl)-3,3-dimethyl-1-oxobutan-2-yl)amino)-8-oxooctyl)carbamoyl)pyridin-2-yl)amino)-4-((2-methoxy-3-(1-methyl-1H-1,2,4-triazol-3-yl)phenyl)amino)-N-methylpyridazine-3-carboxamide] | A (A: ≥60% TYK2 degradation) | A (A: ≥60% TYK2 degradation) |
